# Experimental data as given in patent US20210030869A1, “DOSING REGIMEN FOR AN IDO INHIBITOR” (Incyte Corporation, priority 2019, published 2021).
# “Also recorded” adds a separate entry of the source. Read-outs that look alike come from different tables or passages of the source.
# Assays:
# [1] = system: endometrial cancer; settings: cited from earlier work
# [2] = Safety and dose-limiting toxicity in Phase 1b dose-finding study (INCMGA 0012-102); assay type: in vivo; settings: epacadostat 900 mg BID with ANTIBODY X 500 mg Q4W
# Description: The study is an open-label, nonrandomized, multicenter, Phase 1b study with independent treatment groups.
# For dose escalation, a Bayesian optimal interval (BOIN) design with a cohort size of approximately 3 evaluable participants is used. The target rate of dose-limiting toxicities (DLTs) is assumed to be 30% for each combination. At each dose level, a maximum of 9 participants are enrolled.
# Participants in the dose-escalation cohorts are observed for 28 days for occurrence of DLTs.
# The MTD is defined as the highest dose at which less than approximately one-third of the participants have a DLT. Dose-limiting toxicities occurring during the first 28 days of treatment guide dose escalation and determination of the MTD and RP2D. In addition, participants with late-onset safety events meeting the definition of DLT or those who had intolerable, lower grade persistent toxicity determined to be attributable to either study drug (e.g., Grade 2 peripheral neuropathy) are considered in the selection of each combination RP2D. […]
# A DLT is defined as the occurrence of any of the toxicities listed in Table 4 that are possibly, probably, or definitely due to study treatment occurring from the start of treatment up to and including Day 28. All DLTs will be assessed by the investigator using Common Terminology Criteria for Adverse Events: Version 5 (CTCAE v5) criteria. […]
# [3] = system: plasma kynurenine levels (IDO1 inhibition)
# Description: Clinical laboratory tests are performed, including measurement of kynurenine levels in blood plasma and tumor samples.
# Plasma kynurenine levels were measured by an LC-MS/MS method at World Wide Clinical Trials, Inc. Patient samples were obtained pre-dose and at defined times following treatment.
# Plasma kynurenine was measured pre-treatment (C1D1) and at the indicated visits.
# [4] = MSI-H or MMR deficient endometrial cancer progressed on prior therapy
# [5] = first line therapy in advanced endometrial cancer
compound,measurement,setting,value
CC(=O)O[C@H]1C(=O)[C@@]2(C)[C@H]([C@H](OC(=O)c3ccccc3)[C@]3(O)C[C@H](OC(=O)[C@H](O)[C@@H](NC(=O)c4ccccc4)c4ccccc4)C(C)=C1C3(C)C)[C@]1(OC(C)=O)CO[C@@H]1C[C@@H]2O [Paclitaxel],RR (response rate),[1]; endometrial cancer patients previously treated with combination of cisplatinum and doxorubicin,25%
CC(=O)O[C@@]12CO[C@@H]1C[C@H](O)[C@@]1(C)C(=O)[C@H](O)C3=C(C)[C@@H](OC(=O)[C@H](O)[C@@H](NC(=O)OC(C)(C)C)c4ccccc4)C[C@@](O)([C@@H](OC(=O)c4ccccc4)[C@H]21)C3(C)C [docetaxel],RR (response rate),[1]; endometrial cancer patients treated with paclitaxel in first line therapy,8%
"NS(=O)(=O)NCCNc1nonc1C(=NO)Nc1ccc(F)c(Br)c1 [epacadostat, 4-({2-[(aminosulfonyl)amino]ethyl}amino)-N-(3-bromo-4-fluorophenyl)-N′-hydroxy-1,2,5-oxadiazole-3-carboximidamide]",maximum tolerated dose (MTD) assessment,[2],exceeded the MTD
same,reductions in plasma kynurenine levels compared to Group 1,"[3]; 600 mg BID epacadostat (Group 2) vs 100 mg BID (Group 1), with ANTIBODY X 500 mg Q4W, day 8 of treatment, solid tumor patients, 3 per group",increased reductions in plasma kynurenine levels
same,patients showing sustained reductions in plasma kynurenine,"[3]; 600 mg BID epacadostat with ANTIBODY X 500 mg Q4W, after 5 weeks of treatment",2/3
same,decreases in plasma kynurenine over visits (FIG. 1),"[3]; epacadostat 600 mg BID with ANTIBODY X, pre-treatment (C1D1) vs later visits",sustained (up to 4 months) decreases in plasma kyn in most patients; also recorded: sustained (up to 4 months) decreases in plasma kynurenine levels in most patients
same,normalization of kynurenine,"[3]; epacadostat 600 mg BID with ANTIBODY X, preliminary observations",durable normalization of kynurenine
Pembrolizumab: another anti-PD-1 antibody,ORR for EC,[1]; [4],36%
same,duration of response,[1]; [4],4-17 months
carboplatin and paclitaxel,ORR,[1]; [5],approximately 50%
same,OS,[1]; [5],3 years
same,PFS,[1]; [5],13 months
